Assay [1] in a line: Bioassay of purified fractions for anti-diabetic activity. The text has this: The partially purified active extract may be dissolved in methanol, and may be further fractionated by column chromatography, employing silica gel as an adsorption medium and a chloroform/30% methanol mixture as an eluent. A plurality of different fractions may be obtained, and each may be evaluated, by suitable bioassaying procedures, to determine the anti-diabetic activity thereof.
A fraction having anti-diabetic activity may preferably be further fractionated such as by column chromatography using silica gel as an adsorption medium and a 9:1 chloroform:methanol solvent, and the resultant sub-fractions bioassayed for their anti-diabetic activity. A sub-fraction displaying anti-diabetic activity may, if desired, be further fractionated and purified, conveniently using a column chromatographic procedure with silica gel as the adsorption medium and a 9:1 ethylacetate:hexane solvent. The resultant purified fractions may again be evaluated by suitable bioassay procedures for their anti-diabetic activity.

For another assay, the system named is diabetic rats. The experiment in a line: Flavonoids administered to diabetic rats (blood sugar). It counts as in vivo.

With `O=C(CCc1ccc(O)c(O)c1)c1c(O)cc(O)c([C@@H]2O[C@H](CO)[C@@H](O)[C@H](O)[C@H]2O)c1O` [aspalathin, 3′-C-fl-D-glucopyranosyl-2′,3,4,4′,6′-pentahydroxydihydrochalcone], in assay [1], the “anti-diabetic activity of purified fraction” value is recorded as “good anti-diabetic activity”. The “lowering the blood sugar and alleviating diabetic symptoms” value with diabetic rats (T1D and T2D rats) is reported as “effective”. Moreover, in the assay on diabetic rats (flavonoids extracted and fractionated from Aspalathus), the “effect in diabetic rats compared with the extract” value is given as “results similar to those produced by the extract”.

For the origin of these results see patent publication US8877717B2, “Anti-diabetic extract of rooibos” (Zadec ApS, priority 2007, dated 2014).
